PMC4055595, “Pharmacokinetic Compatibility of Ginsenosides and Schisandra Lignans in Shengmai-san: From the Perspective of P-Glycoprotein” (PLoS ONE, 2014)
Where two headings read alike, the source gives them in different places.

Experiments:
[1] = Rat plasma pharmacokinetics after 10-day vehicle/SLE and digoxin or GE; format: in vivo, Sprague-Dawley rats; settings: rats; for AUC / Cmax / AUC(0-inf) / MRT inf / Tmax / half-life / AUCINF_obs / Cl_F_obs: day 11 digoxin 0.5 mg/kg or GE 120 mg/kg ig; for AUC(0-inf): read-out: AUCINF_obs; for MRT inf: read-out: MRTINF_obs; for half-life: read-out: t1/2 (converted); for Increase of AUC (AUC0-∞) by 10 continuous days administration of SLE: GE ig on day 11
Method: This study was carried out in strict accordance with the recommendations in the Guide for the Care and Use of Laboratory Animals of the National Institutes of Health. The protocol was approved by the Committee on the Ethics of Animal Experiments of the China Pharmaceutical University. All surgery was performed under sodium pentobarbital anesthesia, and all efforts were made to minimize suffering. […] The rats were fed with standard laboratory food and water and fasted overnight but with free access to water before the test. To evaluate the effect of long-term treatment with SLE on the pharmacokinetics of ginsenosides, 24 rats were also divided into four groups (group I∼ group IV) with 6 animals each. […] On the 11th day, digoxin was administered intragastrically to rats (group I and group II) at a single dose of 0.5 mg/kg, GE was administered intragastrically to rats (group III and group IV) at a single dose of 120 mg/kg. […] Plasma was obtained by centrifugation at 5000 g for 10 min and stored at −20°C before analysis. The plasma / cell samples were extracted using a liquid–liquid extraction technique. To each tube containing 100 µL plasma, 10 µL internal standard (digoxin, 1.0 µg/mL) and 1.0 mL of n-butanol were added. The mixture was then vortex-extracted for 2 min, and centrifuged for 10 min at 10,000 g. […] The plasma concentration-time curves of ginsenosides in rats were obtained by plotting the mean plasma concentrations versus time. Pharmacokinetic parameters were calculated using the WinNonlin 6.3 program (Pharsight Inc., Mountain View, CA). The elimination half-life (t 1/2) value was calculated as 0.693/β, where β is the elimination rate constant calculated from the terminal linear portion of the log plasma concentration-time curve. The total areas under the plasma concentration- time curve from time 0 to the last quantifiable time point (AUC0-t) and from time 0 to infinity (AUC0-∞) were calculated using the log trapezoidal rule. [drawing 3] The maximum plasma concentrations (C max) for ginsenosides were obtained by visual inspection of the plasma concentration-time curve, whereas the initial drug concentration (the extrapolated concentration at zero time) of the drug after intravenous injection was calculated by back-extrapolation of the plasma concentration-time curve to the y-axis.

[2] = test system: LLC-PK1 cells (lacking P-gp); test: Uptake (intracellular accumulation) of digoxin and ginsenosides in LLC-PK1 cells; format: in vitro ADME; settings: for Effect of verapamil on intracellular accumulation: 10 µM verapamil; for Effect of SLE on intracellular accumulation: SLE 2.0 and 10.0 µg/mL
Method: (§1) LLC-PK1 cells, a cell line lacking P-gp, and the derived cell line L-MDR1, which over-express human MDR1-encoded P-gp, were grown in minimum essential medium with supplements at 37°C, 5% CO2, and 95% humidity. LLC-PK1 and L-MDR1 cells were seeded at a density of 12×10^6 cells per 150-cm^2 flask and grown for 7 days in medium 199 supplemented with 2 mM glutamine, 10% fetal bovine serum, 10 mg/500 mL of streptomycin, and 10,000 IU/500 mL of penicillin. To ensure a constant expression level of transport protein, L-MDR1 cells were grown in the presence of 640 nM vincristine. Cells were grown as monolayer on polycarbonate membrane filters (Transwell; Costar Corporation, Cambridge, MA) as outlined previously. Transepithelial resistance was measured in each well using a Millicell ERS ohmmeter (Millipore, Bedford, MA); wells registering a resistance of 200 ohms or greater, after correcting for the resistance obtained in control blank wells, were used in the transport experiments.
(§2) LLC-PK1 and L-MDR1 cells were incubated with SLE (2.0 and 10.0 µg/mL) or verapamil (10 µM) for 1.0 h, and then were washed to discard SLE or verapamil before adding 100 µg/mL of GE. The accumulation of GE lasted for 2 h, and the intracellular concentrations of ginsenosides were measured by LC/MS. All experiments were conducted in triplicate.

[3] = target: T1, human MDR1-encoded P-gp (L-MDR1 cells) (Homo sapiens, UniProt P08183); test: Transport of digoxin and ginsenosides across L-MDR1 cell monolayers (efflux ratio); format: in vitro ADME; settings: for P-gp substrate classification: summary of transport/uptake in LLC-PK1, L-MDR1 and Caco-2 cells with verapamil; for Effect of verapamil on efflux ratio / Papp / Effect of SLE on efflux ratio / transport: L-MDR1 cells; for Effect of verapamil on efflux ratio / Papp: 10 µM verapamil; for Effect of SLE on efflux ratio / transport: SLE 2.0 and 10.0 µg/mL
T1 sequence (P08183 whole entry): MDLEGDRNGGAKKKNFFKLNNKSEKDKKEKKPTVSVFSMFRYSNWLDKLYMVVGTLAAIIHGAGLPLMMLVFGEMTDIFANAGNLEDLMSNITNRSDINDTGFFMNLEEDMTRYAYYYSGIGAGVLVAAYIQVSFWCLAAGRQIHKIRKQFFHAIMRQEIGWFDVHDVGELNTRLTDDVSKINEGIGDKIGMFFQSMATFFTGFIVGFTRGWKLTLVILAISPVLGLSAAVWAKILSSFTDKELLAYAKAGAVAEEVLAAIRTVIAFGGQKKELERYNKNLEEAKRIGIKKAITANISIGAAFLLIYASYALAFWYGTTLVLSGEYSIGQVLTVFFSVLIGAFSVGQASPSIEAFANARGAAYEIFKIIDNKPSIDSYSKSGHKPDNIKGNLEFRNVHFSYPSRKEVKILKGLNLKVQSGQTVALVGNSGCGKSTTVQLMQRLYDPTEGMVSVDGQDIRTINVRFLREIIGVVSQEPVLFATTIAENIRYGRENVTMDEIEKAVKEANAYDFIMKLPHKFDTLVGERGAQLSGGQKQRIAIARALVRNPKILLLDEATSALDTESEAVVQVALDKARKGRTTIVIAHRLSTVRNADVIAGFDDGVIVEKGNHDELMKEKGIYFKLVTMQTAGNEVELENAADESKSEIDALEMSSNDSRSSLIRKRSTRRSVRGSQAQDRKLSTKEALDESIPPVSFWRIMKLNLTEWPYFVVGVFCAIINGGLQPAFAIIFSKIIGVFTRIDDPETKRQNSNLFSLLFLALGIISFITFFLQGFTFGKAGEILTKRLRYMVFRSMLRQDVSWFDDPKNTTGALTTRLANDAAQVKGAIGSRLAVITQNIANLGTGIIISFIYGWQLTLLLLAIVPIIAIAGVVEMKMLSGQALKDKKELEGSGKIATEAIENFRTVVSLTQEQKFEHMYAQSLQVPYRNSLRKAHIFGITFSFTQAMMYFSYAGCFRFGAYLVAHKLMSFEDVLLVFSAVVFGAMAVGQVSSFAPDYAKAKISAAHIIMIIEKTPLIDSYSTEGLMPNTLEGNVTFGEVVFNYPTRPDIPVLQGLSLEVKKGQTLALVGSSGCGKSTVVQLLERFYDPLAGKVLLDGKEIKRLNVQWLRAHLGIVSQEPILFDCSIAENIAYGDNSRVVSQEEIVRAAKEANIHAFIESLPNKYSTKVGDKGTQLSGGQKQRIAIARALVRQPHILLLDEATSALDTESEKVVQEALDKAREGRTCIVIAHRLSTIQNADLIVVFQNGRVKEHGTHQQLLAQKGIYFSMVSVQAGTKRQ
Method: as §1
(§3) The LLC-PK1 and L-MDR1 cells were washed with warm Hank's balanced salt solution HBSS (pH 7.4) twice before transport experiment. HBSS containing verapamil (10 µM), SLE (2.0 and 10.0 µg/mL) or blank HBSS (control) was then loaded into both apical and basolateral chambers. After incubation at 37°C for 1.5 h, GE (100 µg/mL) was added to either the apical or basolateral side to evaluate the transport in absorptive and secretive directions, respectively. The cell monolayer was then incubated for another 2 h. Finally, the concentrations of ginsenosides were determined by LC/MS. All experiments were conducted in triplicate.
(§4) For the transport assay, the apparent permeability (P app, cm/s) in each direction (A→B and B→A) was calculated as follows, where A is the surface area of the membrane inserts (0.0804 cm^2), C 0 is the initial concentration of the compound applied in the donor compartment (2 µM), and △Q is the amount (micromoles) of compound transported over time △t (5 h = 18,000 s): [drawing 1]
(§5) The efflux ratio (ER) was a dimensionless number calculated as the ratio of the apparent permeability in the B→A direction divided by the apparent permeability in the A→B direction. [drawing 2]

[4] = test system: LLC-PK1 cells (lacking P-gp); test: Transport of digoxin and ginsenosides across LLC-PK1 cell monolayers; format: in vitro ADME; settings: for Effect of SLE on transport (AP→BL, BL→AP): SLE 2.0 and 10.0 µg/mL; for Effect of verapamil on transport (efflux ratio): 10 µM verapamil
Method: as §1, §3, §4, §5

[5] = target: T1, human MDR1-encoded P-gp (L-MDR1 cells); test: Uptake (intracellular concentration) of digoxin and ginsenosides in L-MDR1 cells; format: in vitro ADME
Method: as §1, §2

P-gp (MDR1) = P-gp (MDR1) (Homo sapiens, UniProt P08183); test: Transport of digoxin and ginsenosides across L-MDR1 cell monolayers (efflux ratio); format: in vitro ADME; settings: human, read-out: Efflux ratio (Papp BL-AP / Papp AP-BL)
Chain of P-gp (MDR1) (P08183 whole entry): as above
Method: as §1, §3, §4, §5

[6] = female, Sprague-Dawley, rat, plasma, po, SLE 500 mg/kg ig once a day for 10 days
[7] = female, Sprague-Dawley, rat, plasma, po, SLE 500 mg/kg ig once a day for 10 days, read-out: Tmax
[8] = female, Sprague-Dawley, rat, plasma, po, control: vehicle once a day for 10 days
[9] = SLE 500 mg/kg ig once a day for 10 days
[10] = SLE 500 mg/kg x 10 days vs vehicle
[11] = control: vehicle once a day for 10 days
[12] = LLC-PK1, pH 7.4, with verapamil 10 µM, L-MDR1 cells, presence of 10 µM verapamil

`CC(C)=CCC[C@](C)(O[C@@H]1O[C@H](CO[C@@H]2OC[C@H](O)[C@H](O)[C@H]2O)[C@@H](O)[C@H](O)[C@H]1O)[C@H]1CC[C@]2(C)[C@@H]1[C@H](O)C[C@@H]1[C@@]3(C)CC[C@H](O[C@@H]4O[C@H](CO)[C@@H](O)[C@H](O)[C@H]4O[C@@H]4O[C@H](CO)[C@@H](O)[C@H](O)[C@H]4O)C(C)(C)[C@@H]3CC[C@]12C` [Rb2, ginsenoside Rb2] showed an AUC [1, 6] of 21300 ± 6520 ng·h/mL, a Cmax [1, 6] of 586 ± 95.2 ng/mL and an AUC(0-inf) [1, 6] of 16600 ± 3510 ng·h/mL. It also gave an MRT inf [1, 6] of 26.5 ± 6.58 h, a Tmax [1, 7] of 10 ± 2.83 h and a half-life [1, 6] of 24.3 ± 8.42 h. It also gave an AUC [1, 8] of 15900 ± 3310 ng·h/mL, a Cmax [1, 8] of 512 ± 77.8 ng/mL and an AUC(0-inf) [1, 8] of 22600 ± 6120 ng·h/mL. It also gave an MRT inf [1, 8] of 29.5 ± 2.61 h, a half-life [1, 8] of 20.1 ± 3.66 h and an AUCINF_obs [1, 9] of 22557 ± 6121 ng·h/mL. The Cl_F_obs [1, 9] was 0.0047 ± 0.0011 L/h, the “Increase of AUC (AUC0-∞) by 10 continuous days administration of SLE” value [1, 10] was 1.33 fold and the AUCINF_obs [1, 11] was 16600 ± 3511 ng·h/mL. The Cl_F_obs [1, 11] was 0.0062 ± 0.0013 L/h, the “Effect of verapamil on intracellular accumulation” value [2] was “no significant difference” and the “Effect of SLE on intracellular accumulation” value [2] was “no significant difference”. The P-gp substrate classification [3] was “moderate P-gp substrates”, the “Effect of SLE on transport (AP→BL, BL→AP)” value (from here on “Effect of SLE on transport”) [4] was “No transport difference” and the “Increase of intracellular concentration by SLE” value (“Increase … by SLE” for short) ([5]; 2.0 µg/mL SLE) was 2.0 fold. For the same molecule, the “Increase … by SLE” value ([5]; 10.0 µg/mL SLE) was 3.7 fold.

For `C[C@H]1O[C@@H](O[C@H]2[C@@H](O)C[C@H](O[C@H]3[C@@H](O)C[C@H](O[C@H]4CC[C@@]5(C)[C@H](CC[C@@H]6[C@@H]5C[C@@H](O)[C@]5(C)[C@@H](C7=CC(=O)OC7)CC[C@]65O)C4)O[C@@H]3C)O[C@@H]2C)C[C@H](O)[C@@H]1O` [Digoxin, digoxin, reference compound], the AUC [1, 6] was 123 ± 52.8 ng·h/mL, the Cmax [1, 6] was 22.9 ± 13.7 ng/mL and the AUC(0-inf) [1, 6] was 127 ± 52.1 ng·h/mL. The MRT inf [1, 6] was 4.78 ± 0.91 h, the Tmax [1, 7] was 3.28 ± 1.73 h and the half-life [1, 6] was 2.19 ± 0.87 h. It also gave an AUC [1, 8] of 68.3 ± 26 ng·h/mL, a Cmax [1, 8] of 11.8 ± 4.22 ng/mL and an AUC(0-inf) [1, 8] of 76.1 ± 30 ng·h/mL. For the same molecule, the MRT inf [1, 8] was 5.65 ± 2.85 h, the Tmax ([1]; female, Sprague-Dawley, rat, plasma, po, control: vehicle once a day for 10 days, read-out: Tmax) was 2.33 ± 1.03 h and the half-life [1, 8] was 2.99 ± 2.32 h. The Cl_F_obs [1, 9] was 4.49 ± 1.75 L/h, the “Increase of AUC0-τ by 10 continuous days administration of SLE” value ([1]; SLE 500 mg/kg x 10 days vs vehicle, digoxin 0.5 mg/kg ig on day 11, P<0.05) was “about 2 fold” and the Cl_F_obs [1, 11] was 7.48 ± 3.09 L/h. For the same molecule, the “Effect of verapamil on intracellular accumulation” value [2] was “no significant difference”, the “Effect of SLE on intracellular accumulation” value [2] was “no significant difference” and the “Effect of verapamil on efflux ratio / Papp” value [3] was “significantly decrease of ER”. The “Effect of SLE on efflux ratio / transport” value [3] was “significantly decreased”, the efflux ratio at 2 h, 100 µg/mL (P-gp (MDR1); LLC-PK1, pH 7.4, L-MDR1 cells, control (absence of verapamil), GE 100 µg/mL, 2 h) was 26.2 and the efflux ratio at 2 h, 100 µg/mL (P-gp (MDR1); [12]) was 8.23. For the same molecule, the “Effect of verapamil on transport (efflux ratio)” value [4] was “No transport difference”, the “Effect of SLE on transport” value [4] was “No transport difference” and the “Increase … by SLE” value ([5]; 2.0 µg/mL SLE) was 2.7 fold. For the same molecule, the “Enhancement of uptake level by verapamil” value ([5]; 10 µM verapamil, P<0.05) was 3.2 fold and the “Increase … by SLE” value ([5]; 10.0 µg/mL SLE) was 3.6 fold.

Work on `CC(C)=CCC[C@](C)(O[C@@H]1O[C@H](CO)[C@@H](O)[C@H](O)[C@H]1O)[C@H]1CC[C@]2(C)[C@@H]1[C@H](O)C[C@@H]1[C@@]3(C)CC[C@H](O[C@@H]4O[C@H](CO)[C@@H](O)[C@H](O)[C@H]4O[C@@H]4O[C@H](CO)[C@@H](O)[C@H](O)[C@H]4O)C(C)(C)[C@@H]3CC[C@]12C` [Rd, ginsenoside Rd] yielded an AUC [1, 6] of 7640 ± 2690 ng·h/mL, a Cmax [1, 6] of 265 ± 49.4 ng/mL and an AUC(0-inf) [1, 6] of 11700 ± 8560 ng·h/mL. The MRT inf [1, 6] was 26.3 ± 90.6 h, the half-life [1, 6] was 18 ± 75.9 h and the AUC [1, 8] was 6570 ± 1820 ng·h/mL. For the same molecule, the Cmax [1, 8] was 262 ± 104 ng/mL, the AUC(0-inf) [1, 8] was 7460 ± 2340 ng·h/mL and the MRT inf [1, 8] was 22.4 ± 9.98 h. The half-life [1, 8] was 20.8 ± 9.64 h, the Cl_F_obs [1, 9] was 0.0125 ± 0.0084 L/h and the Tmax [1, 9] was 8.00 ± 2.45 h. The “Increase of AUC (AUC0-∞) by 10 continuous days administration of SLE” value [1, 10] was 1.60 fold, the Tmax [1, 11] was 8.00 ± 2.45 h and the “Effect of verapamil on intracellular accumulation” value [2] was “no significant difference”. For the same molecule, the “Effect of SLE on intracellular accumulation” value [2] was “no significant difference”, the “Effect of verapamil on efflux ratio / Papp” value [3] was “significantly decrease of ER” and the “Effect of SLE on efflux ratio / transport” value [3] was “significantly decreased”. The P-gp substrate classification [3] was “moderate P-gp substrates”, the efflux ratio at 2 h, 100 µg/mL (P-gp (MDR1); [12]) was 2.19 and the “Effect of verapamil on transport (efflux ratio)” value [4] was “No transport difference”. For the same molecule, the “Effect of SLE on transport” value [4] was “No transport difference”, the “Increase … by SLE” value ([5]; 2.0 µg/mL SLE) was 2.9 fold and the “Increase … by SLE” value ([5]; 10.0 µg/mL SLE) was 4.3 fold.
